## ganglioside GM1
Neuronal cells
  N. Red (neutral red incorporation): 36.1 ± 2.9

## H-STVIIE-OH [NH2—STVIIE—COOH]
Primary neurons
  cytotoxicity: dramatic cytotoxicity

## H-ISFLIF-OH [NH2—ISFLIF—COOH]
Primary neurons
  cytotoxicity: dramatic cytotoxicity

## H-KVQIIN-OH [NH2—KVQIIN—COOH]
Primary neurons
  cytotoxicity: dramatic cytotoxicity

Source: US20100093001A1 (priority 2006, published 2010)
